Several values for one entry are separate records, joined by “and”; a condition that tells them apart may be missing. Identical values can stand only once.
Assay: xn = mol fraction of the nth substance listed

N[C@@H](CO)C(=O)O + O
Settings	viscosity
298 K, 101 kPa, x1 = 0.0004	0.8836 mPa·s
298 K, 101 kPa, x1 = 0.0007	0.8853 mPa·s
298 K, 101 kPa, x1 = 0.001	0.889 mPa·s and 0.8901 mPa·s
298.15 K, 101 kPa, x1 = 8.92e-05	0.9214 mPa·s
298.15 K, 101 kPa, x1 = 0.000181	0.9346 mPa·s
298.15 K, 101 kPa, x1 = 0.00045	0.9108 mPa·s
298.15 K, 101 kPa, x1 = 0.000898	0.9225 mPa·s
298.15 K, 101 kPa, x1 = 0.00135	0.9328 mPa·s
298.15 K, 101 kPa, x1 = 0.00178	0.9489 mPa·s
298.15 K, 101 kPa, x1 = 0.001798	0.942 mPa·s
298.15 K, 101 kPa, x1 = 0.002245	0.9508 mPa·s
298.15 K, 101 kPa, x1 = 0.002695	0.9596 mPa·s
298.15 K, 101 kPa, x1 = 0.003143	0.9678 mPa·s
298.15 K, 101 kPa, x1 = 0.00359	0.9758 mPa·s
298.15 K, 101 kPa, x1 = 0.003599	0.9614 mPa·s
298.15 K, 101 kPa, x1 = 0.005265	0.9714 mPa·s
298.15 K, 101 kPa, x1 = 0.007246	0.9945 mPa·s
298.15 K, 101 kPa, x1 = 0.008825	1.011 mPa·s
298.15 K, 101 kPa, x1 = 0.01096	1.024 mPa·s
298.15 K, 101 kPa, x1 = 0.01198	1.04 mPa·s
298.15 K, 101 kPa, x1 = 0.01387	1.059 mPa·s
298.15 K, 101.3 kPa, x1 = 0.0008915	0.901 mPa·s
298.15 K, 101.3 kPa, x1 = 0.001352	0.905 mPa·s
298.15 K, 101.3 kPa, x1 = 0.001784	0.909 mPa·s
298.15 K, 101.3 kPa, x1 = 0.002244	0.913 mPa·s
298.15 K, 101.3 kPa, x1 = 0.002683	0.917 mPa·s
303.15 K, 101 kPa, x1 = 0.00045	0.8151 mPa·s
303.15 K, 101 kPa, x1 = 0.000898	0.8252 mPa·s
303.15 K, 101 kPa, x1 = 0.00135	0.834 mPa·s
303.15 K, 101 kPa, x1 = 0.001798	0.8418 mPa·s
303.15 K, 101 kPa, x1 = 0.002245	0.8494 mPa·s
303.15 K, 101 kPa, x1 = 0.002695	0.8566 mPa·s
303.15 K, 101 kPa, x1 = 0.003143	0.8637 mPa·s
303.15 K, 101 kPa, x1 = 0.00359	0.8705 mPa·s
303.15 K, 101.3 kPa, x1 = 0.0008915	0.807 mPa·s
303.15 K, 101.3 kPa, x1 = 0.001352	0.811 mPa·s
303.15 K, 101.3 kPa, x1 = 0.001784	0.815 mPa·s
305.15 K, 101 kPa, x1 = 0.0003602	0.7851 mPa·s
305.15 K, 101 kPa, x1 = 0.0007201	0.7891 mPa·s
305.15 K, 101 kPa, x1 = 0.00108	0.7935 mPa·s
305.15 K, 101 kPa, x1 = 0.001439	0.7984 mPa·s
305.15 K, 101 kPa, x1 = 0.001798	0.8025 mPa·s
305.15 K, 101 kPa, x1 = 0.002157	0.8071 mPa·s
308.15 K, 101 kPa, x1 = 8.92e-05	0.7615 mPa·s
308.15 K, 101 kPa, x1 = 0.000181	0.7756 mPa·s
308.15 K, 101 kPa, x1 = 0.00045	0.7347 mPa·s
308.15 K, 101 kPa, x1 = 0.000898	0.7434 mPa·s
308.15 K, 101 kPa, x1 = 0.00135	0.751 mPa·s
308.15 K, 101 kPa, x1 = 0.00178	0.7901 mPa·s
308.15 K, 101 kPa, x1 = 0.001798	0.7578 mPa·s
308.15 K, 101 kPa, x1 = 0.002245	0.7641 mPa·s
308.15 K, 101 kPa, x1 = 0.002695	0.7704 mPa·s
308.15 K, 101 kPa, x1 = 0.003143	0.7764 mPa·s
308.15 K, 101 kPa, x1 = 0.00359	0.7822 mPa·s
308.15 K, 101 kPa, x1 = 0.003599	0.8056 mPa·s
308.15 K, 101 kPa, x1 = 0.005265	0.8198 mPa·s
308.15 K, 101 kPa, x1 = 0.007246	0.8356 mPa·s
308.15 K, 101 kPa, x1 = 0.008825	0.8542 mPa·s
308.15 K, 101 kPa, x1 = 0.01096	0.8741 mPa·s
308.15 K, 101 kPa, x1 = 0.01198	0.8898 mPa·s
308.15 K, 101 kPa, x1 = 0.01387	0.9046 mPa·s
310.15 K, 101 kPa, x1 = 0.0003602	0.7043 mPa·s
310.15 K, 101 kPa, x1 = 0.0007201	0.708 mPa·s
310.15 K, 101 kPa, x1 = 0.00108	0.7119 mPa·s
310.15 K, 101 kPa, x1 = 0.001439	0.7158 mPa·s
310.15 K, 101 kPa, x1 = 0.001798	0.7189 mPa·s
310.15 K, 101 kPa, x1 = 0.002157	0.7232 mPa·s
313.15 K, 101 kPa, x1 = 0.00045	0.6665 mPa·s
313.15 K, 101 kPa, x1 = 0.000898	0.6741 mPa·s
313.15 K, 101 kPa, x1 = 0.00135	0.6807 mPa·s
313.15 K, 101 kPa, x1 = 0.001798	0.6867 mPa·s
313.15 K, 101 kPa, x1 = 0.002245	0.6922 mPa·s
313.15 K, 101 kPa, x1 = 0.002695	0.6976 mPa·s
313.15 K, 101 kPa, x1 = 0.003143	0.7029 mPa·s
313.15 K, 101 kPa, x1 = 0.00359	0.7078 mPa·s
315.15 K, 101 kPa, x1 = 0.0003602	0.6498 mPa·s
315.15 K, 101 kPa, x1 = 0.0007201	0.6537 mPa·s
315.15 K, 101 kPa, x1 = 0.00108	0.6566 mPa·s
315.15 K, 101 kPa, x1 = 0.001439	0.66 mPa·s
315.15 K, 101 kPa, x1 = 0.001798	0.6629 mPa·s
315.15 K, 101 kPa, x1 = 0.002157	0.6666 mPa·s
318.15 K, 101 kPa, x1 = 8.92e-05	0.6512 mPa·s
318.15 K, 101 kPa, x1 = 0.000181	0.6602 mPa·s
318.15 K, 101 kPa, x1 = 0.00045	0.6097 mPa·s
318.15 K, 101 kPa, x1 = 0.000898	0.6164 mPa·s
318.15 K, 101 kPa, x1 = 0.00135	0.6222 mPa·s
318.15 K, 101 kPa, x1 = 0.00178	0.6723 mPa·s
318.15 K, 101 kPa, x1 = 0.001798	0.6275 mPa·s
318.15 K, 101 kPa, x1 = 0.002245	0.6324 mPa·s
318.15 K, 101 kPa, x1 = 0.002695	0.6371 mPa·s
318.15 K, 101 kPa, x1 = 0.003143	0.6417 mPa·s
318.15 K, 101 kPa, x1 = 0.00359	0.6461 mPa·s
318.15 K, 101 kPa, x1 = 0.003599	0.6845 mPa·s
318.15 K, 101 kPa, x1 = 0.005265	0.6953 mPa·s
318.15 K, 101 kPa, x1 = 0.007246	0.7012 mPa·s
318.15 K, 101 kPa, x1 = 0.008825	0.7125 mPa·s
318.15 K, 101 kPa, x1 = 0.01096	0.7242 mPa·s
318.15 K, 101 kPa, x1 = 0.01198	0.7345 mPa·s
318.15 K, 101 kPa, x1 = 0.01387	0.7466 mPa·s

— the CheMixHub viscosity set
